Legend:
[1] = Inhibition of citric acid-mediated enamel surface softening (Vickers microhardness/microindentation); parameters: species or system human; details: Example 1; for enamel surface microhardness (baseline = 100): ± = standard deviation; for levels of protection compared among SDP, PDEP and fluoride positive control: at 10 and 20 minutes; for levels of protection compared among SDP, PDEP and fluoride positive control / protection versus the fluoride positive control: in words; for protection versus the fluoride positive control: at 30 minutes
Experimental: The first stage of dental erosion and acid wear involves demineralisation of the hard tissue surface and consequent surface softening. The present study employed a Duramin Microhardness Tester to assess the protective effect of SDP and PDEP against an erosive challenge based on citric acid.
Sound human enamel specimens were polished with 2400 grit abrasive and subsequently immersed in an aqueous solution of the specified treatment at pH 7 for 2 minutes under ambient conditions, with agitation. After rinsing with deionised water, the enamel specimens were exposed to an erosive challenge comprising an aqueous solution of 0.30% w/w citric acid monohydrate, pH 3.6. The extent of acid damage was assessed by monitoring the decrease in enamel surface hardness as a function of acid exposure time. The microhardness value for each specimen at a given time point was based on the mean of 6 indents. Each treatment leg employed 3 enamel specimens, which were randomised according to baseline microhardness. A 300 ppm fluoride ion solution (from NaF) was employed as the positive control; deionised water was employed as the negative control. The protective effects of combination treatment solutions i.e. 0.50% alkyl phosphate plus 300 ppm fluoride, were also investigated.
The actives were tested as aqueous solutions at 0.50% w/w and pH 7.

[2] = Enamel solubility reduction (FDA ESR model #33 modified), citric acid challenge; details: for Enamel Solubility Reduction (%): 1.0% w/w citric acid monohydrate pH 3.75, alkyl phosphates 0.50% w/w aqueous, pH 7, normalised to water negative control
Description: (§1) FDA caries monograph enamel solubility reduction (ESR) model #33 is designed to evaluate in vitro the utility of fluoride toothpastes to protect enamel against a bacterial (lactic) acid challenge. In brief, enamel specimens are placed in a lactic acid challenge (pH 4.5) and the solubility determined by spectrophotometric analysis of released phosphate. Specimens are then placed in the relevant treatment solution derived from the supernatant of a 1:3 slurry of the toothpaste in deionised water. After 5 minutes the specimens are removed, rinsed, and placed in a fresh lactic acid challenge. The enamel solubility is determined once again, and the ESR value calculated as a percentage reduction relative to the baseline solubility.
The methodology described above was modified in order to evaluate the ability of putative anti-erosion actives to confer protection against a more aggressive dietary acid challenge. […] The alkyl phosphates were tested as 0.50% w/w aqueous solutions at pH 7. Fluoride was included as a positive control, and Crest Cavity Protection was also run as an additional control standard.

[3] = Enamel solubility reduction (FDA ESR model #33 modified), phosphoric acid challenge
Description: as §1
FDA ESR Model #33 was modified by replacing lactic acid with phosphoric acid, a dietary acid most commonly associated with cola drinks. Determination of enamel solubility in this study was based on analysis of the released calcium to prevent interference from the acid challenge.

[4] = 10 mins acid (0.30% w/w citric acid monohydrate, pH 3.6) after 2 min treatment at pH 7
[5] = 20 mins acid (0.30% w/w citric acid monohydrate, pH 3.6) after 2 min treatment at pH 7
[6] = 30 mins acid (0.30% w/w citric acid monohydrate, pH 3.6) after 2 min treatment at pH 7

Molecule	enamel surface microhardness (baseline = 100) [1, 4]	enamel surface microhardness (baseline = 100) [1, 5]	enamel surface microhardness (baseline = 100) [1, 6]	levels of protection compared among SDP, PDEP and fluoride positive control [1]	protection versus the fluoride positive control [1]	Enamel Solubility Reduction (%) [2] [%]	directional comparison with fluoride ([2]; citric acid ESR, in words)	statistical comparison with the 300 ppm fluoride control ([2]; citric acid ESR, in words)	protection against the phosphoric acid challenge compared to the negative water control ([3]; in words)	acid protection versus the 300 ppm fluoride ([3]; phosphoric acid ESR, in words)	Enamel Solubility Reduction (%) ([3]; phosphoric acid challenge, solubility from released calcium)
CCCCCCCCCCCCOP(=O)([O-])[O-].[Na+].[Na+] [SDP, sodium dodecyl phosphate]	94 ± 1.7	84 ± 4.0	80 ± 2.0	comparable	statistically superior	36.76	directionally superior	not statistically different	statistically significant protection	statistically superior	16.02
potassium dodecyl ether (1EO) phosphate [PDEP]	92.5 ± 1.8	82.5 ± 2.7	78 ± 2.8	comparable	statistically superior	17.77		statistically inferior			

Reference: patent publication US20100316579A1, “NOVEL USE OF ALKYL PHOSPHATE ESTERS” (Glaxo Group Limited, priority 2006, published 2010)
